Experimental data: patent publication US20260166045A1, “COMBINATION THERAPY COMPRISING GSPT1-DIRECTED MOLECULAR GLUE DEGRADERS AND PI3K/AKT/mTOR PATHWAY INHIBITORS” (Monte Rosa Therapeutics, Inc., priority 2022, published 2026)

Assays:
MCF7 xenografts = assay: MCF7 cell-derived xenograft (CDX) in vivo combination study; parameters: species or system BALB/c nude mice; conditions: compound 1-1 10 mg/kg; for Δ TV ratio to vehicle group (A/C, B/C, (AB)/C): day 28, Clarke method; for Δ TV (delta tumor volume): p.o. qd for 28 days, average of four tumors
Procedure: […] (0.36 mg) pellets (Innovative Research of America Cat. No.: SE-121, pellet size: 3.0 mm) were implanted 2-3 days before cell inoculation.
(§1) Compound 1-1 was formulated every day freshly as a solution in 5% DMSO/95% (30% w/v HPβCD in water). This formulation was also used as vehicle control. Everolimus was formulated as a suspension in 1% MC (400 cps), which was prepared every 3 days.
(§2) Body weights were measured at the same time.
An approximation of drug interactions was made using the method described by Clarke (Clarke et al. 1997. Breast Cancer Res Treat. 46(2-3):255-78). This was applied to […] and can estimate interactions from limited data. In short, for compound A, B, or the combination AB (with control group C), antagonism is predicted when (AB)/C>(A/C)×(B/C), an additive effect is predicted when (AB)/C=(A/C)×(B/C), and synergistic interaction is predicted to occur when (AB)/C<(A/C)×(B/C). Calculations in Table 10B indicate that the interaction of everolimus and compound 1-1 in the MCF7 CDX model is synergistic.
17β-Estradiol (0.36 mg) pellets (Innovative Research of America Cat. No.: SE-121, pellet size: 3.0 mm) were implanted 2-3 days before cell inoculation.
(§3) Compound 1-1 was formulated every day freshly as a solution in 5% DMSO/95% (30% w/v HPβCD in water). This formulation was also used as vehicle control. Alpelisib was formulated as a solution in 20% captisol+80% water (pH adjusted to 4), which was prepared every week.

CAL51 xenografts = assay: CAL51 cell-derived xenograft (CDX) in vivo combination study; parameters: species or system SCID Beige mice; conditions: compound 1-1 3 mg/kg; for antitumor effect vs vehicle (tumor volume): day 21, ANOVA with post hoc Tukey's test; for antitumor effect vs vehicle (tumor volume) / Δ TV ratio to vehicle group (A/C, B/C, (AB)/C): p.o. qd; for Δ TV ratio to vehicle group (A/C, B/C, (AB)/C): day 21, Clarke method; for Δ TV (delta tumor volume): p.o. qd for 21 days, average of four tumors
Procedure: as §1, §2, §3

O=C1CCC(N2Cc3ccc(COC(=O)Nc4cc(OC(F)(F)F)ccc4F)cc3C2=O)C(=O)N1 (stereo not drawn) [Compound 1-1, [2-(2,6-dioxopiperidin-3-yl)-3-oxo-2,3-dihydro-1H-isoindol-5-yl]methyl N-[2-fluoro-5-(trifluoromethoxy)phenyl]carbamate]
anti-tumor effect compared to vehicle (MCF7 xenografts; day 28, ANOVA with post hoc Tukey's test, alpelisib 50 mg/kg, p.o. qd): significant anti-tumor effect | antitumor effect vs vehicle (tumor volume) (MCF7 xenografts; day 28, ANOVA with post hoc Tukey's test, everolimus 2 mg/kg, p.o. qd): statistically significant antitumor effects | Δ TV ratio to vehicle group (A/C, B/C, (AB)/C) (MCF7 xenografts; alpelisib 50 mg/kg, p.o. qd): 0.35 | Δ TV ratio to vehicle group (A/C, B/C, (AB)/C) (MCF7 xenografts; everolimus 2 mg/kg, p.o. qd): 0.35 | Δ TV (delta tumor volume) (MCF7 xenografts; day 28, alpelisib 50 mg/kg, combination 50 + 10 mg/kg): 216 mm^3 | Δ TV (delta tumor volume) (MCF7 xenografts; day 28, everolimus 2 mg/kg, combination 2 + 10 mg/kg): 216 mm3 | antitumor effect vs vehicle (tumor volume) (CAL51 xenografts; alpelisib 20 mg/kg): neither alpelisib nor compound 1-1 produced a statistically significant antitumor effect | antitumor effect vs vehicle (tumor volume) (CAL51 xenografts; everolimus 2 mg/kg): statistically significant antitumor effect | Δ TV ratio to vehicle group (A/C, B/C, (AB)/C) (CAL51 xenografts; alpelisib 20 mg/kg): 0.38 | Δ TV ratio to vehicle group (A/C, B/C, (AB)/C) (CAL51 xenografts; everolimus 2 mg/kg): 0.38 | Δ TV (delta tumor volume) (CAL51 xenografts; day 21, alpelisib 20 mg/kg, combination 20 + 3 mg/kg): 215 mm3 | Δ TV (delta tumor volume) (CAL51 xenografts; day 21, everolimus 2 mg/kg, combination 2 + 3 mg/kg): 215 mm3
